Measured values reported in PMC9657391, “A Food-Grade Method for Enhancing the Levels of Low Molecular Weight Proanthocyanidins with Potentially High Intestinal Bioavailability” (International Journal of Molecular Sciences, 2022).

Biological target: T1, COX-2 (cyclooxygenase 2) (Homo sapiens, UniProt P35354)
T1 construct: gene PTGS2
Test: biochemical

T1 sequence (P35354 18-604): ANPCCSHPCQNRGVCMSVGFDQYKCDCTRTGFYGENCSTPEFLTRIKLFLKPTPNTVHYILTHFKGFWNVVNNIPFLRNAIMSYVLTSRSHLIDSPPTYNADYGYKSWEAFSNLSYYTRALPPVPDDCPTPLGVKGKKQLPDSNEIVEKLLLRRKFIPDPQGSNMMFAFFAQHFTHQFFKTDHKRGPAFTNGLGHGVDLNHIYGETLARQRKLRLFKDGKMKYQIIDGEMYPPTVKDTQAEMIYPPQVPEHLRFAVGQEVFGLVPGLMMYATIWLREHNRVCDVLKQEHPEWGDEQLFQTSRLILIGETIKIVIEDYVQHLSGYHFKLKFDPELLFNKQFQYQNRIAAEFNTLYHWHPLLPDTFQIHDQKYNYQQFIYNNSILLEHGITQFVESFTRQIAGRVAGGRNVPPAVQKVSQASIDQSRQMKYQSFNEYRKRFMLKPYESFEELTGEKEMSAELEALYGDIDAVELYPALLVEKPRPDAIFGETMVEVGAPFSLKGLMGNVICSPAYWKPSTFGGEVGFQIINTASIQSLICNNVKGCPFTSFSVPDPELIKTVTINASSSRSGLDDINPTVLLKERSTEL

COc1ccc2cc([C@H](C)C(=O)O)ccc2c1 [Naproxen] showed an IC50 of 13 µM.
